In PubChem BioAssay AID1259407 (Chemical Carcinogenesis Research Information System (CCRIS), 2018):
Calls of active or inactive are those of the source. The rule behind the calls is not given here.

System: CCRIS mutagenicity, Ames/micronucleus/aberration tests
Assay: CCRIS mutagenicity studies

C[C@]12C/C(=C/O)C(=O)C[C@@H]1CC[C@@H]1[C@@H]2CC[C@@]2(C)[C@H]1CC[C@]2(C)O
mutagenic call (Test System: AMES SALMONELLA TYPHIMURIUM, Strain/Indicator: TA97, Metabolic Activation: HAMSTER, LIVER, S-9, AROCLOR 1254 (10 OR 30%), Method: PREINCUBATION): inactive; negative | mutagenic call (Test System: AMES SALMONELLA TYPHIMURIUM, Strain/Indicator: TA97, Metabolic Activation: NONE, Method: PREINCUBATION): inactive; negative | mutagenic call (Test System: AMES SALMONELLA TYPHIMURIUM, Strain/Indicator: TA97, Metabolic Activation: RAT, LIVER, S-9, AROCLOR 1254 (10 OR 30%), Method: PREINCUBATION): inactive; negative | mutagenic call (Test System: AMES SALMONELLA TYPHIMURIUM, Strain/Indicator: TA98, Metabolic Activation: HAMSTER, LIVER, S-9, AROCLOR 1254 (10 OR 30%), Method: PREINCUBATION): inactive; negative | mutagenic call (Test System: AMES SALMONELLA TYPHIMURIUM, Strain/Indicator: TA98, Metabolic Activation: NONE, Method: PREINCUBATION): inactive; negative | mutagenic call (Test System: AMES SALMONELLA TYPHIMURIUM, Strain/Indicator: TA98, Metabolic Activation: NONE, Method: STANDARD PLATE): inactive; negative | mutagenic call (Test System: AMES SALMONELLA TYPHIMURIUM, Strain/Indicator: TA98, Metabolic Activation: RAT LIVER S-9, AROCLOR 1254, 10%, Method: STANDARD PLATE): inactive; negative | mutagenic call (Test System: AMES SALMONELLA TYPHIMURIUM, Strain/Indicator: TA98, Metabolic Activation: RAT, LIVER, S-9, AROCLOR 1254 (10 OR 30%), Method: PREINCUBATION): inactive; negative | mutagenic call (Test System: AMES SALMONELLA TYPHIMURIUM, Strain/Indicator: TA100, Metabolic Activation: HAMSTER, LIVER, S-9, AROCLOR 1254 (10 OR 30%), Method: PREINCUBATION): inactive; negative | mutagenic call (Test System: AMES SALMONELLA TYPHIMURIUM, Strain/Indicator: TA100, Metabolic Activation: NONE, Method: PREINCUBATION): inactive; negative | mutagenic call (Test System: AMES SALMONELLA TYPHIMURIUM, Strain/Indicator: TA100, Metabolic Activation: NONE, Method: STANDARD PLATE): inactive; negative | mutagenic call (Test System: AMES SALMONELLA TYPHIMURIUM, Strain/Indicator: TA100, Metabolic Activation: RAT LIVER S-9, AROCLOR 1254, 10%, Method: STANDARD PLATE): inactive; negative | mutagenic call (Test System: AMES SALMONELLA TYPHIMURIUM, Strain/Indicator: TA100, Metabolic Activation: RAT, LIVER, S-9, AROCLOR 1254 (10 OR 30%), Method: PREINCUBATION): inactive; negative | mutagenic call (Test System: AMES SALMONELLA TYPHIMURIUM, Strain/Indicator: TA1535, Metabolic Activation: HAMSTER, LIVER, S-9, AROCLOR 1254 (10 OR 30%), Method: PREINCUBATION): inactive; negative | mutagenic call (Test System: AMES SALMONELLA TYPHIMURIUM, Strain/Indicator: TA1535, Metabolic Activation: NONE, Method: PREINCUBATION): inactive; negative | mutagenic call (Test System: AMES SALMONELLA TYPHIMURIUM, Strain/Indicator: TA1535, Metabolic Activation: NONE, Method: STANDARD PLATE): inactive; negative | mutagenic call (Test System: AMES SALMONELLA TYPHIMURIUM, Strain/Indicator: TA1535, Metabolic Activation: RAT LIVER S-9, AROCLOR 1254, 10%, Method: STANDARD PLATE): inactive; negative | mutagenic call (Test System: AMES SALMONELLA TYPHIMURIUM, Strain/Indicator: TA1535, Metabolic Activation: RAT, LIVER, S-9, AROCLOR 1254 (10 OR 30%), Method: PREINCUBATION): inactive; negative | mutagenic call (Test System: AMES SALMONELLA TYPHIMURIUM, Strain/Indicator: TA1537, Metabolic Activation: NONE, Method: STANDARD PLATE): inactive; negative | mutagenic call (Test System: AMES SALMONELLA TYPHIMURIUM, Strain/Indicator: TA1537, Metabolic Activation: RAT LIVER S-9, AROCLOR 1254, 10%, Method: STANDARD PLATE): inactive; negative | mutagenic call (Test System: ESCHERICHIA COLI, Strain/Indicator: WP2 UVRA, Metabolic Activation: NONE, Method: STANDARD PLATE): inactive; negative | mutagenic call (Test System: ESCHERICHIA COLI, Strain/Indicator: WP2 UVRA, Metabolic Activation: RAT LIVER S-9, AROCLOR 1254, 10%, Method: STANDARD/PLATE): inactive; negative | mutagenic call (Test System: MOUSE LYMPHOMA, Strain/Indicator: L5178Y (TK+/TK-), Metabolic Activation: NONE, Method: SUSPENSION PLATE): inactive; negative | mutagenic call (Test System: MOUSE LYMPHOMA, Strain/Indicator: L5178Y (TK+/TK-), Metabolic Activation: RAT LIVER S-9, AROCLOR 1254, 3%, NADP, ISOCITRATE, Method: SUSPENSION/PLATE): inactive; negative

N#CCc1cn(N=O)c2ccccc12
mutagenic call (Test System: AMES SALMONELLA TYPHIMURIUM, Strain/Indicator: TA100, Metabolic Activation: NONE): active; positive | mutagenic call (Test System: AMES SALMONELLA TYPHIMURIUM, Strain/Indicator: TA100, Metabolic Activation: S-9): active; positive

CC(=O)Nc1ccc(-c2ccc(N)cc2)cc1
mutagenic call (Test System: AMES SALMONELLA TYPHIMURIUM, Strain/Indicator: TA1538, Metabolic Activation: GUINEA PIG, LIVER, HEPATOCYTES, Method: PREINCUBATION): active; positive | mutagenic call (Test System: AMES SALMONELLA TYPHIMURIUM, Strain/Indicator: TA1538, Metabolic Activation: GUINEA PIG, LIVER, S-9, ACETYL-COA (0.1 OR 1 MILLIMOLAR), Method: PREINCUBATION): active; positive | mutagenic call (Test System: AMES SALMONELLA TYPHIMURIUM, Strain/Indicator: TA1538, Metabolic Activation: GUINEA PIG, LIVER, S-9, Method: PREINCUBATION): active; positive | mutagenic call (Test System: AMES SALMONELLA TYPHIMURIUM, Strain/Indicator: TA1538, Metabolic Activation: HAMSTER, LIVER, HEPATOCYTES, Method: PREINCUBATION): active; positive | mutagenic call (Test System: AMES SALMONELLA TYPHIMURIUM, Strain/Indicator: TA1538, Metabolic Activation: HAMSTER, LIVER, S-9, ACETYL-COA (0.1 OR 1 MILLIMOLAR), Method: PREINCUBATION): active; positive | mutagenic call (Test System: AMES SALMONELLA TYPHIMURIUM, Strain/Indicator: TA1538, Metabolic Activation: HAMSTER, LIVER, S-9, Method: PREINCUBATION): active; positive | mutagenic call (Test System: AMES SALMONELLA TYPHIMURIUM, Strain/Indicator: TA1538, Metabolic Activation: RAT, LIVER, HEPATOCYTES, Method: PREINCUBATION): active; positive | mutagenic call (Test System: AMES SALMONELLA TYPHIMURIUM, Strain/Indicator: TA1538, Metabolic Activation: RAT, LIVER, S-9, ACETYL-COA (0.1 OR 1 MILLIMOLAR), Method: PREINCUBATION): active; positive | mutagenic call (Test System: AMES SALMONELLA TYPHIMURIUM, Strain/Indicator: TA1538, Metabolic Activation: RAT, LIVER, S-9, Method: PREINCUBATION): active; positive | mutagenic call (Test System: Ames Salmonella typhimurium, Strain/Indicator: TA102, Metabolic Activation: None, Method: Preincubation): inactive; negative | mutagenic call (Test System: Ames Salmonella typhimurium, Strain/Indicator: TA102, Metabolic Activation: Rat, liver, S-9, Aroclor 1254, 4%, Method: Preincubation): active; positive
